The target of experiment [1] is T1, Integrin alpha-IIb/beta-3 (Homo sapiens, UniProt P05106+P08514). Kind of experiment: Inhibition of biotinylated fibrinogen binding to isolated alpha IIb beta-3 integrin. Type of experiment: protein-complex assay.
Target sequence in this assay (P05106 27-788 limits assumed): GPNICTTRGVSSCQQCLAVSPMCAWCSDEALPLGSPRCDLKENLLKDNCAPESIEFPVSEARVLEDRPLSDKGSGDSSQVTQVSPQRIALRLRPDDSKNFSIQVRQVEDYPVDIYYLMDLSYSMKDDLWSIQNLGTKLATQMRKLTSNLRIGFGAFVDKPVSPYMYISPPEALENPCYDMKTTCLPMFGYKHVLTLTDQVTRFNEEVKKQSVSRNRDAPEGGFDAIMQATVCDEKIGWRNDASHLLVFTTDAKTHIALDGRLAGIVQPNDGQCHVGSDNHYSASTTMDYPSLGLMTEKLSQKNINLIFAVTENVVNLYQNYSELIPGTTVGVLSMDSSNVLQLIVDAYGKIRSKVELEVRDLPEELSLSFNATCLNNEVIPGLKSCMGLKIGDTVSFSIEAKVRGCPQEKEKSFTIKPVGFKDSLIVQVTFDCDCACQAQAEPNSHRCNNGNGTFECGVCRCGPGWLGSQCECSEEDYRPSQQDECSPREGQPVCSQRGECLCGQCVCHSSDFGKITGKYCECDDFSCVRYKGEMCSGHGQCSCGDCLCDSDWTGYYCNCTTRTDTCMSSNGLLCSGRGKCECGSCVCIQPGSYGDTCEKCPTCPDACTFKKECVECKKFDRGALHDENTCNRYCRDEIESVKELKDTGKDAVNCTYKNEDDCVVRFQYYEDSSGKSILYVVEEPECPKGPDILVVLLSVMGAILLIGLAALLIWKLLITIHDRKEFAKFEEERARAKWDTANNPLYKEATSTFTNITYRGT
Target sequence in this assay (P08514 32-887 limits assumed): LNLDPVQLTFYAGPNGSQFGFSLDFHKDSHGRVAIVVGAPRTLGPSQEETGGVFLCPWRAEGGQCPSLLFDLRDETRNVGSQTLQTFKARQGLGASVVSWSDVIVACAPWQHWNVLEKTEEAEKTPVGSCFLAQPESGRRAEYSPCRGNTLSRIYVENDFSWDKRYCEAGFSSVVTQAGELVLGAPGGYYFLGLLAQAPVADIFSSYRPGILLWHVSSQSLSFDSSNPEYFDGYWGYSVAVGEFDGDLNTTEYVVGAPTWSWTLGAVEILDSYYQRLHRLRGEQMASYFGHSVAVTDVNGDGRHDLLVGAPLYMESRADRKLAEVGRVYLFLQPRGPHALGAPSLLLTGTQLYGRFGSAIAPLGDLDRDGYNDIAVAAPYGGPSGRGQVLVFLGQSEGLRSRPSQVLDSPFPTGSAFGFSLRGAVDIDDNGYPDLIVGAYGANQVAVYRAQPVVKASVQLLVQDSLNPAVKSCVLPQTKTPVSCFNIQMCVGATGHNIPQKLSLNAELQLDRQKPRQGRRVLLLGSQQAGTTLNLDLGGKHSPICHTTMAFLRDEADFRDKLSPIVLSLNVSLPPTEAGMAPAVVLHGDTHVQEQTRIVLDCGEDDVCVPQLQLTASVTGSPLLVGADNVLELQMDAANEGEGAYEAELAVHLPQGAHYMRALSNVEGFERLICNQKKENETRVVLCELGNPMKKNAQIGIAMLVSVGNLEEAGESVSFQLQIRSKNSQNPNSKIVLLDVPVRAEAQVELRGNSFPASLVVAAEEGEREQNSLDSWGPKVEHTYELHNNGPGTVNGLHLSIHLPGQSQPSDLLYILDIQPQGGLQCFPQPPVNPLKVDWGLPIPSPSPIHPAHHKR
Target sequence in this assay (P08514 891-1039 limits assumed): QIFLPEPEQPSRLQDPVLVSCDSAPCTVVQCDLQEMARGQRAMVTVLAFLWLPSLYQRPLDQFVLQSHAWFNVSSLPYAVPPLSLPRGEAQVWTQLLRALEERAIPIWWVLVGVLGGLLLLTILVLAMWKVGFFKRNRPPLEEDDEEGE
For experiment [2], the species on record is Homo sapiens. Kind of experiment: Percent inhibition of thrombin-induced platelet aggregation at 50 uM. It counts as functional.
For experiment [3], the target named is T1, Integrin alpha-IIb/beta-3. As to the kind of experiment: (§1) Inhibition of fibrinogen binding to isolated integrin alphaIIb-beta3 at 50 uM. It counts as protein-complex assay.
The species entered for experiment [4] is Homo sapiens. As to the kind of experiment: Inhibition (at 50 uM) of thrombin-induced platelet aggregation. It counts as functional.
For experiment [5], the species on record is Homo sapiens. As to the kind of experiment: Inhibition (at 10 uM) of thrombin-induced platelet aggregation. It counts as functional.
The species entered for experiment [6] is Homo sapiens. As to the kind of experiment: Compound was tested for inhibition of thrombin-induced platelet aggregation at the 1.0 uM Conc. It counts as functional.
Experiment [7] is described as follows: Percent inhibition of thrombin-induced platelet aggregation at the Conc. of 0.1 uM.
Experiment [8] is filed under the species Homo sapiens. As to the kind of experiment: Inhibition of collagen-induced platelet aggregation […]. Type of experiment: functional.
The target in experiment [9] is T1, Integrin alpha-IIb/beta-3. The description is as §1. Type of experiment: protein-complex assay. This is another data set of the same source.
Target sequence in this assay (P05106 27-788 limits assumed): as the sequence (P05106 27-788 limits assumed) above
Target sequence in this assay (P08514 32-887 limits assumed): as the sequence (P08514 32-887 limits assumed) above
Target sequence in this assay (P08514 891-1039 limits assumed): as the sequence (P08514 891-1039 limits assumed) above
Experiment [10] in a line: Percent inhibition of thrombin-induced platelet aggregation at the Conc. of 0.1 uM. This is another data set of the same source.
Experiment [11] is filed under the species Homo sapiens. Kind of experiment: Percent inhibition of thrombin-induced platelet aggregation at 20 uM. Type of experiment: functional.

Peptide text beside a SMILES is read from it.

In turn, `CC(C)(C)OC(=O)N[C@@H](CCCCNC(=O)OCc1ccccc1)C(=O)N1CCC[C@@H](C(=O)NCCC(=O)O)C1` yielded a 50% inhibitory concentration (IC50) in [1] of 20000 nM.
In the experiment listed under Homo sapiens [2], `COC(=O)CNC12CC3CC(C1)CC(NC(=O)C(CCCCN)NC(=O)OCC1c4ccccc4-c4ccccc41)(C3)C2` (centres undefined) had an inhibition at 50 µM of 25%. Further, the inhibition in [3] came to 1%.
`CC(C)(C)OC(=O)N[C@H](CCCCN)C(=O)N1CCCC(C(=O)NCCC(=O)O)C1` (some centres undefined): the 50% inhibitory concentration (IC50) in [1] is 740 nM. This compound also gave an inhibition at 50 µM in the experiment listed under Homo sapiens [4] of 45%. In the experiment listed under Homo sapiens [5], this compound had an inhibition at 10 µM of 12%.
In the experiment listed under Homo sapiens [4], `NCCCCCC(=O)N1CCCC(C(=O)NCCC(=O)O)C1` (centres undefined) had an inhibition at 50 µM of 88%. The compound further displayed an inhibition at 10 µM in the experiment filed under Homo sapiens [5] of 87%. In the experiment filed under Homo sapiens [6], this compound registered an inhibition at 1 µM of 29%.
Compound `NCCCCC(NC(=O)OCc1ccccc1)C(=O)NC12CC3CC(C1)CC(N(CC(=O)O)C(=O)COc1ccccc1)(C3)C2` (centres undefined) returned an inhibition at 50 µM in the experiment filed under Homo sapiens [2] of 2%. Besides, the inhibition in experiment [3] was 33%.
`NCCCCCC(=O)N1CCCC(CNCCC(=O)O)C1` (centres undefined): the inhibition at 50 µM in the experiment listed under Homo sapiens [4] was 63%. This compound also yielded an inhibition at 10 µM in the experiment filed under Homo sapiens [5] of 24%.
Regarding `O=C(O)CNC12CC3CC(C1)CC(NC(=O)CCC1CCNCC1)(C3)C2`, the inhibition at 50 µM in the experiment listed under Homo sapiens [2] was determined as 5%. Besides, the inhibition in experiment [3] worked out at 49%.
In experiment [7], `CC(C)(C)OC(=O)N[C@@H](CCCCN)C(=O)N1CCC[C@@H](C(=O)NCCC(=O)O)C1` registered an inhibition at 0.1 µM of 2%. Moreover, the values for the IC50 (in [1]; in the experiment listed under Homo sapiens [8]) were 8 nM and 220 nM, respectively. The compound also had an inhibition at 50 µM in the experiment filed under Homo sapiens [4] of 91%. The inhibition at 10 µM in the experiment listed under Homo sapiens [5] is 87%. In the experiment listed under Homo sapiens [6], this compound came in with an inhibition at 1 µM of 45%.
`N=C(N)NCCC[C@H](N)C(=O)NCC(=O)N[C@@H](CC(=O)O)C(=O)N[C@@H](CS)C(=O)O` (H-RGDC-OH) returned a half-maximal inhibitory concentration (IC50) in [1] of 1000 nM.
The compound H-HHLGGAKQAGDV-OH displayed an IC50 in experiment [1] of 4100 nM.
`CC(C)(C)OC(=O)N[C@@H](CCCCN)C(=O)N1CCCC(C(=O)NCCCC(=O)O)C1` (some centres undefined) returned an inhibition at 50 µM in the experiment listed under Homo sapiens [4] of 43%. The compound further had an inhibition at 10 µM in the experiment filed under Homo sapiens [5] of 7%.
In turn, `CC(C)NCCCC[C@@H](NC(=O)OC(C)(C)C)C(=O)N1CCCC(C(=O)NCCC(=O)O)C1` (some centres undefined) gave an inhibition at 5 µM in [1] of 20%. The same compound displayed an inhibition at 50 µM in the experiment listed under Homo sapiens [4] of 4%. In the experiment filed under Homo sapiens [5], this compound gave an inhibition at 10 µM of 6%.
For the compound `CC(C)(C)OC(=O)N[C@H](CCCCN)C(=O)N1CCCC(C(=O)NCCCC(=O)O)C1` (some centres undefined), the inhibition at 50 µM is 59% in experiment [1] and 0% in the experiment listed under Homo sapiens [4]. For the same compound, testing at 10 µM in the experiment filed under Homo sapiens [5] gave an inhibition of 0%.
As to `NCCCC[C@@H](N)C(=O)N1CCCC(C(=O)NCCC(=O)O)C1` (some centres undefined), the IC50 in [1] was found to be 2600 nM. The compound also returned an inhibition at 50 µM in the experiment filed under Homo sapiens [4] of 8%. Further, the inhibition at 10 µM in the experiment filed under Homo sapiens [5] amounted to 1%.
With `CC(C)NCCCCC(NC(=O)OC(C)(C)C)C(=O)NC12CC3CC(CC(NCC(=O)O)(C3)C1)C2` (centres undefined), in the experiment listed under Homo sapiens [2], 50 µM produced 3% inhibition. The compound further registered an IC50 in [9] of 29900 nM.
In the case of `CC(C)(C)OC(=O)N[C@H](CCCN=C(N)N)C(=O)N1CCCC(C(=O)NCCC(=O)O)C1` (some centres undefined), the IC50 in [1] worked out at 2700 nM. In addition, in the experiment listed under Homo sapiens [4], the inhibition at 50 µM amounted to 17%. Besides, the inhibition at 10 µM in the experiment listed under Homo sapiens [5] worked out at 0%.
For `NCCCC[C@H](N)C(=O)N1CCCC(C(=O)NCCC(=O)O)C1` (some centres undefined), in experiment [1], the IC50 came to 760 nM. The same compound came in with an inhibition at 50 µM in the experiment listed under Homo sapiens [4] of 87%. In the experiment filed under Homo sapiens [5], the inhibition at 10 µM was 48%. The compound further yielded an inhibition at 1 µM in the experiment listed under Homo sapiens [6] of 0%.
`O=C(O)CCNC(=O)C1CCCN(C(=O)CCC2CCNCC2)C1` (centres undefined): the half-inhibitory concentration (IC50) is 9 nM in [1] and 140 nM in the experiment listed under Homo sapiens [8]. Further, in the experiment filed under Homo sapiens [4], the inhibition at 50 µM worked out at 91%. Also, in the experiment listed under Homo sapiens [5], the inhibition at 10 µM was 89%. The inhibition at 1 µM in the experiment listed under Homo sapiens [6] is 89%. The compound also yielded an inhibition at 0.1 µM in experiment [10] of 4%.
`CC(=O)N[C@H](CCCCN)C(=O)N1CCCC(C(=O)NCCC(=O)O)C1` (some centres undefined) registered a half-maximal inhibitory concentration (IC50) in experiment [1] of 74 nM. Besides, in the experiment filed under Homo sapiens [4], 50 µM produced 88% inhibition. In the experiment filed under Homo sapiens [5], this compound registered an inhibition at 10 µM of 30%. The same compound displayed an inhibition at 1 µM in the experiment listed under Homo sapiens [6] of 4%.
Compound `CC(=O)N[C@@H](CCCCN)C(=O)N1CCCC(C(=O)NCCC(=O)O)C1` (some centres undefined) came in with a half-inhibitory concentration (IC50) in [1] of 340 nM. At 50 µM the inhibition in the experiment listed under Homo sapiens [4] was 87%. In the experiment listed under Homo sapiens [5], this compound returned an inhibition at 10 µM of 67%.
`C[C@H](NC(=O)OCC1c2ccccc2-c2ccccc21)C(=O)N[C@@H](CCCCN)C(=O)NC12CC3CC(CC(NCC(=O)O)(C3)C1)C2` registered an inhibition at 50 µM in the experiment listed under Homo sapiens [2] of 37%. For the same compound, the inhibition in experiment [3] is 42%.
Turning to `CC(C)(C)OC(=O)NC(CCCN=C(N)N)C(=O)NC12CC3CC(CC(NCC(=O)O)(C3)C1)C2` (centres undefined), the inhibition at 50 µM in the experiment listed under Homo sapiens [2] was determined as 9%. Also, in experiment [3], the inhibition was 28%.
Consider `NCCCCC(NC(=O)OCc1ccccc1)C(=O)NC12CC3CC(CC(NCC(=O)O)(C3)C1)C2` (centres undefined), for which the inhibition at 50 µM in the experiment filed under Homo sapiens [2] stood at 24%. In experiment [3], this compound had an inhibition of 26%.
Compound `COC(=O)CC(NC(=O)CNC12CC3CC(C1)CC(NC(=O)C(CCCCN)NC(=O)OCC1c4ccccc4-c4ccccc41)(C3)C2)C(=O)NC(C(=O)OC)C(C)C` (centres undefined) yielded an inhibition at 50 µM in the experiment filed under Homo sapiens [2] of 15%. In [3], this compound displayed an inhibition of 0%.
As for `CC(=O)N[C@H](CCCCN)C(=O)N1CCCC(C(=O)NCC(=O)O)C1` (some centres undefined), the inhibition at 50 µM in experiment [1] stood at 24%; in the experiment listed under Homo sapiens [4] it was 4%.
For the compound `CC(C)(C)OC(=O)N[C@@H](CCCCN)C(=O)N1CCC[C@H](C(=O)NCCC(=O)O)C1`, in experiment [1], the concentration for half-maximal inhibition (IC50) worked out at 28 nM. For the same compound, the inhibition at 50 µM in the experiment filed under Homo sapiens [4] was found to be 91%. At 10 µM the inhibition in the experiment filed under Homo sapiens [5] was 87%. In the experiment filed under Homo sapiens [6], this compound returned an inhibition at 1 µM of 11%.
`CC(C)(C)OC(=O)N[C@@H](CCCCN)C(=O)N1CCCC(C(=O)NCC(=O)O)C1` (some centres undefined) came in with an IC50 in experiment [1] of 50000 nM. In addition, the inhibition at 50 µM in the experiment filed under Homo sapiens [4] worked out at 24%. In addition, the inhibition at 10 µM in the experiment filed under Homo sapiens [5] was 7%.
Consider `COC(=O)[C@H](CC(=O)O)NC(=O)C1CCCN(C(=O)[C@H](CCCCN)NC(=O)OC(C)(C)C)C1` (some centres undefined), for which the 50% inhibitory concentration (IC50) in [1] amounted to 29 nM; in the experiment filed under Homo sapiens [8] it was 2630 nM. Also, the inhibition at 50 µM in the experiment filed under Homo sapiens [4] came to 87%. For the same compound, testing at 10 µM in the experiment listed under Homo sapiens [5] gave an inhibition of 32%. In the experiment listed under Homo sapiens [6], this compound showed an inhibition at 1 µM of 2%.
As for `CC(C)(C)OC(=O)NC(CCCCN)C(=O)NC12CC3CC(CC(NCC(=O)O)(C3)C1)C2` (centres undefined), at 20 µM the inhibition in the experiment filed under Homo sapiens [11] was 40%.
Consider `CC(C)(C)OC(=O)N[C@@H](CCCCN)C(=O)N1CCCC(C(=O)NCCC(=O)O)C1` (some centres undefined), for which the values for the IC50 (in experiment [1]; in the experiment filed under Homo sapiens [8]) were 29 nM and 350 nM, respectively. The compound also came in with an inhibition at 50 µM in the experiment listed under Homo sapiens [4] of 88%. In addition, in the experiment listed under Homo sapiens [5], testing at 10 µM gave an inhibition of 87%. This compound also came in with an inhibition at 1 µM in the experiment filed under Homo sapiens [6] of 21%.

As usually defined, the IC50 is the concentration that inhibits the measured activity by half. Higher therefore signals lower potency. A word on the inhibition: it is the relative decrease from the control value, in per cent. A high value points to a response far below the control.

Values taken from ChEMBL document CHEMBL1128350, “Design and evaluation of nonpeptide fibrinogen gamma-chain based GPIIb/IIIa antagonists” (J Med Chem, 1995).
